The values below come from US20160257735A1, “REGULATION OF NPVF GENE AND ITS PRODUCTS: A METHOD FOR MODULATING ENERGY IMBALANCE” (Institute of Animal Reproduction and Food Research PAS, priority 2015, published 2016).

Ends that are not written are not given here.

For assay [1], the target named is T1, rat orphan 7TM GPCR (OT7T022, GPR147, NPFFR1) (Rattus norvegicus, UniProt Q9EP86).
T1 construct: expressed in transfected cells; host or cells: CHO cells
The settings on record: synthetic RFRPs; cited from earlier work.

In assay [2] the test system is Npvf mRNA in hypothalamus. The assay can be described thus: CL 316,243 or saline administration for 7 days at 29° C., Npvf mRNA in hypothalamus by qRT-PCR. The format is in vivo, mice (C57BL/6J). As to conditions: one week administration, 1 mg/kg of body weight, subcutaneous, mice at 29° C. Here is the method:
Total RNA was isolated from adipose tissue, liver and hypothalamus using TRI Reagent and BCP phase separation reagent (Molecular Research Center Inc. Cincinnati, Ohio, United States). RNA was further purified by using the RNAeasy minikit (QIAGEN, Valencia, Calif., United States) and stored at −80° C. in RNase-free H2O with addition of SUPERase-In (Ambion, Austin, Tex., United States) for RNase protection. Quality and quantity of RNA was determined using UV spectrophotometry (Nanodrop) and agarose gel visualization of intact RNA. Quantitative RT-PCR using TaqMan probes and primers (Applied Biosystems, Foster City, Calif., United States) was performed with standard curves generated using pooled RNA isolated from corresponding tissues collected from eight 8 week old C57BL/6J.+/+ mice. Probe and primer sequences used to perform the analyses are available upon request. All the gene expression data were normalized to the level of cyclophilin b.
To establish the influence of different ambient temperature on Npvf expression mice were kept in climate-controlled rodent incubators. To evaluate the effects of the β adrenergic receptor agonist on Ucp1 and Npvf, thermoneutrally acclimated mice were injected subcutaneously with 1 mg kg^−1 […] or saline for 7 days.
All mice used in the following studies were adult wild-type C57BL/6J+/+ mice. […]
For orientation: Quantitative PCR measures a nucleic acid by following its amplification.

A further assay addresses NPFFR1 (Homo sapiens, UniProt Q9GZQ6). The settings on record: cited from earlier work.
In assay [3] the test system is NPFF receptors (NPFF1 and NPFF2 subtypes). As to conditions: cited from earlier work.

T1 sequence (Q9EP86 whole entry): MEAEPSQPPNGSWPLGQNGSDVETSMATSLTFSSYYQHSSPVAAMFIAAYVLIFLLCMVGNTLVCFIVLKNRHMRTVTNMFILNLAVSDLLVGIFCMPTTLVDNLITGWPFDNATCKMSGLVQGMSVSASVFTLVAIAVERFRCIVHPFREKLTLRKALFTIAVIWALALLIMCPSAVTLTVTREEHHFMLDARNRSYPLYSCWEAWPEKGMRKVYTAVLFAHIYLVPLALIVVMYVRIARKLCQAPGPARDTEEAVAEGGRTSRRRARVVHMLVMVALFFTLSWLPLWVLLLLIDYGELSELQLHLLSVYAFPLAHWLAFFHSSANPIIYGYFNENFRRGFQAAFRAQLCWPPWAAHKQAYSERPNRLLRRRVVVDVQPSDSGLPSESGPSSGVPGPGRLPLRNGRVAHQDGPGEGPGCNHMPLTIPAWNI
Sequence of NPFFR1 (Q9GZQ6 whole entry, species assumed): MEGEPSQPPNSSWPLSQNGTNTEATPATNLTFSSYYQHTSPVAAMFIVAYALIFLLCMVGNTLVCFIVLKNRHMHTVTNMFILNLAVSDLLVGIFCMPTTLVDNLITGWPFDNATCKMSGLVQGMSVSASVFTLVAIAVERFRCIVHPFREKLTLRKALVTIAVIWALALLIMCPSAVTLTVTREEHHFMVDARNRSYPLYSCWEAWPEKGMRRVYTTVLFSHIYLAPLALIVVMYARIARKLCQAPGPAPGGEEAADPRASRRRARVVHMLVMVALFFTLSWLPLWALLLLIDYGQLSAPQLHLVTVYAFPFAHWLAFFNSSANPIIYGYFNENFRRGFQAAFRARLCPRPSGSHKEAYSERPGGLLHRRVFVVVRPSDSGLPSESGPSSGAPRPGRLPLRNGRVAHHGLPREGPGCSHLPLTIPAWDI

“RFRP-1: RFamide-related peptide derived from Npvf precursor; human sequence MPHSFANLPLRF-NH(2) (SEQ ID NO: 1) (MPHSFANLPLRF-NH2; listed as Homo sapiens)”: in assay [1], the “response of GPR147-transfected CHO cell lines” value is “responded specifically”.
Take `C[C@H](Cc1ccc2c(c1)OC(C(=O)[O-])(C(=O)[O-])O2)NC[C@H](O)c1cccc(Cl)c1.[Na+].[Na+]` [CL 316,243]: the “suppression of Npvf mRNA in hypothalamus compared to saline-treated control mice” value in assay [2] is “did not result in the suppression of Npvf mRNA in hypothalamus”.
In the case of `NC(N)=NCCC[C@@H](NC(=O)C(c1ccccc1)c1ccccc1)C(=O)NCc1ccc(O)cc1` [BIBP3226], the “binding to NPFFR1” value on NPFFR1 was “has been shown to bind to NPFFR1”.
As for `NC(=O)[C@H](Cc1ccccc1)NC(=O)[C@H](CCCN=C(N)N)NC(=O)C12CC3CC(CC(C3)C1)C2` [RF9, adamantylcarbonyl-arginyl-phenylalaninamide], in assay [3], the “discrimination between NPFF1 and NPFF2 subtypes” value is “does not distinguish between the NPFF1 and NPFF2 subtypes”; the “selectivity for NPFF receptors” value is “selective for NPFF receptors”.
With “RFRP-3: RFamide-related peptide derived from Npvf precursor; human sequence VPNLPQRF-NH(2) (SEQ ID NO: 2)”, the “response of GPR147-transfected CHO cell lines” value in assay [1] was “responded specifically”.
